Measurements taken from patent US20240279562A1, “BIOACTIVE ADDITIVE FOR A FUEL, USES THEREOF, FUEL COMPOSITION, AND METHOD” (TUNAP GMBH & CO. KG, priority 2021, published 2024).

Experiments:
Format in all cases: cell-based
[1] = tested on: Hormoconis resinae ATCC 20495; test: Antimicrobial activity according to ASTM E 1259-10, kerosene fungus; settings: FIG. 3, additive 1000 ppm, additive composition 2000 ppm or 5000 ppm; for killing of the tested kerosene fungus: MBO 1000 ppm
Source text: • “TUNAP active ingredient”: test solution containing 1000 ppm 2-(2-heptadec-8-enyl-2-imidazolin-1-yl)ethanol additive (example according to the disclosure). • “TUNAP Protection System Diesel”: test solutions containing 2000 ppm or 5000 ppm of the additive composition “1903391” described below (corresponding to approx. 1000 ppm or 2500 ppm of the active ingredient 2-(2-heptadec-8-enyl-2-imidazolin-1-yl)ethanol) (examples according to the disclosure). • “Tunap 685 (Protezione Diesel) Biocide with MBO”: test solution containing 1000 ppm of the biocide MBO (3,3-methylenebis (5-methyloxazolidine), (comparative sample). • “BIT”: test solution containing 1000 ppm of the biocide BIT (benzisothiazolinone) (comparative sample). • “blank”: fuel without addition of an additive (comparative sample)
• at least 50% by weight 2-(2-heptadec-8-enyl-2-imidazolin-1-yl)ethanol • 10 to 20% by weight C10-C13 hydrocarbons • 5 to 10% by weight 2,6-di-tert-butyl-4-cresol • 5 to 10% by weight 2-ethylhexanol • 5 to 10% by weight 2-ethylhexyl nitrate • 5 to 10% by weight. of a mixture of bis(2-ethylhexyl)[(4-methyl-1H-1,2,3-benzotriazol-1-yl)methyl]amine, bis(2-ethylhexyl) [(4-methyl-2H-1,2,3-benzotriazol-2-yl)methyl]amine, bis(2-ethylhexyl) [(5-methyl-1H-1,2,3-benzotriazol-1-yl)methyl]amine, bis(2-ethylhexyl) [(5-methyl-2H-1,2,3-benzotriazol-2-yl)methyl]amine, bis(2-ethylhexyl) [(6-methyl-1H-1,2,3-benzotriazol-1-yl)methyl]amine
• Hormoconis resinae ATCC 20495 (“kerosene fungus”) • Pseudomonas aeruginosa DSM 15980 (“bacterium”) • Yarrowia tropicalis ATCC 48138 (“yeast”)
(§1) The antimicrobial activity of the samples against the tested microorganisms was determined according to ASTM E 1259-10.

[2] = tested on: Pseudomonas aeruginosa DSM 15980; test: Antimicrobial activity according to ASTM E 1259-10, bacterium; settings: FIG. 4; additive composition 2000 ppm or 5000 ppm, MBO 1000 ppm
Source text: (§2) • “TUNAP active ingredient”: test solution containing 1000 ppm 2-(2-heptadec-8-enyl-2-imidazolin-1-yl)ethanol additive (example according to the disclosure). • “TUNAP Protection System Diesel”: test solutions containing 2000 ppm or 5000 ppm of the additive composition “1903391” described below (corresponding to approx. 1000 ppm or 2500 ppm of the active ingredient 2-(2-heptadec-8-enyl-2-imidazolin-1-yl)ethanol) (examples according to the disclosure). • “Tunap 685 (Protezione Diesel) Biocide with MBO”: test solution containing 1000 ppm of the biocide MBO (3,3-methylenebis (5-methyloxazolidine), (comparative sample). • “BIT”: test solution containing 1000 ppm of the biocide BIT (benzisothiazolinone) (comparative sample). • “blank”: fuel without addition of an additive (comparative sample) […]
as §1

[3] = tested on: Yarrowia tropicalis ATCC 48138; test: Antimicrobial efficacy according to DIN EN 15457:2014-11, yeast fungus; settings: FIG. 2; test solution 1% by weight additive vs 0.1% by weight MBO or MIT
Source text: (§3) • “TUNAP new”: Test solution containing 1% by weight 2-(2-heptadec-8-enyl-2-imidazolin-1-yl)ethanol additive (example according to the disclosure). • “Standard diesel bug biocide with MBO”: test solution containing 0.1% by weight of the biocide MBO (3,3-methylenebis (5-methyloxazolidine)) (comparative sample). • “MIT”: test solution containing 0.1% by weight of the biocide MIT (2-methyl-2H-isothiazol-3-one), (comparative sample). • “Pure fuel”: fuel without the addition of an additive (comparative sample)
(§4) • Hormoconis resinae ATCC 20495 (“kerosene fungus”) • Yarrowia tropicalis ATCC 48138 (“yeast fungus”)
(§5) The antimicrobial efficacy of the samples against the tested microorganisms was determined according to DIN EN 15457:2014-11.

[4] = tested on: Yarrowia tropicalis ATCC 48138; test: Antimicrobial activity according to ASTM E 1259-10, yeast; settings: FIG. 5; additive 1000 ppm, additive composition 2000 ppm or 5000 ppm, BIT 1000 ppm
Source text: as §2, §1

[5] = tested on: Hormoconis resinae ATCC 20495; test: Antimicrobial efficacy according to DIN EN 15457:2014-11, kerosene fungus; settings: FIG. 1; test solution 1% by weight additive vs 0.1% by weight MBO or MIT
Source text: as §3, §4, §5

Structure (SMILES)	killing of the tested kerosene fungus [1]	killing of the tested bacterium [2]	efficacy against the tested kerosene fungus compared with BIT ([1]; BIT 1000 ppm)	efficacy against the tested yeast fungus compared with MBO and MIT [3]	efficacy against the tested yeast compared with BIT [4]	efficacy against the tested kerosene fungus compared with MBO and MIT [5]
CC1CN(CN2COC(C)C2)CO1 (stereo not shown) [MBO, 3,3-methylenebis (5-methyloxazolidine), reference compound]	almost complete killing	almost complete killing				
CCCCCCCCC=CCCCCCCCC1=NCCN1CCO [additive according to the disclosure, 2-(2-heptadec-8-enyl-2-imidazolin-1-yl)ethanol]	almost complete killing		significantly improved efficacy against the tested kerosene fungus than the conventional biocide BIT	at least a similar efficacy against the tested yeast fungus as the conventional but toxic biocides MBO and MIT	significantly improved efficacy against the tested yeast than the conventional biocide BIT	significantly improved efficacy against the tested kerosene fungus than the conventional and also toxic biocides MBO and MIT
